Here are results for seven molecules from article PMC12560828, “Chemical structure drives developmental toxicity of alkyl-substituted naphthalenes in zebrafish” (Environment international, 2025).

The structures appear in SMILES notation.

The subject of data set [1] is early life stage zebrafish (Danio rerio) embryos. The experiment in a line: Developmental toxicity morphology screen, sealed rotating vial exposure. It is filed as in vivo. Further details: bmd, MO24 / bmd, MORT / bmd, ANY_ / bmd, AXIS / bmd, CRAN / bmd, EDEM / bmd, LTRK / bmd, MUSC / bmdL, ANY_ / bmdU, ANY_ / bmdL, AXIS / bmdU, AXIS / bmdL, CRAN / bmdU, CRAN / bmdL, EDEM / bmdU, EDEM / bmdL, LTRK / bmdU, LTRK / bmdL, MO24 / bmdU, MO24 / bmdL, MORT / bmdU, MORT: unit not given here. As to conditions: for BMC50 Any effect: Fig. 2 heatmap, exposure 6-24 hpf in vials, summary of all endpoints; for any effect BMD50: SI-T5; for bmd, MO24: endpoint MO24; for bmd, MORT: endpoint MORT; for bmd, ANY_: morphology endpoint ANY_ (any effect); for bmd, AXIS: morphology endpoint AXIS; for bmd, CRAN: morphology endpoint CRAN; for morphological effects (BMC50 for any morphological endpoint): 0-50 μM, result in words. As for the experimental part:
(§1) When embryos were 6 hpf they were bleached in groups of 1000 or less to limit bacterial growth in sealed vials. Embryos were placed in a strainer for transfer between solutions in 500 mL containers. […] Pools of eight embryos were placed into 2 mL clear glass screw cap exposure vials with polyvinyl-faced pulp liner (Avantar Radnor, PA, United States) using a glass Pasteur pipette. Excess EM was removed, and 2 mL of fresh EM was immediately added. A total of 10 uL of 200x working stock (in DMSO) was added to each vial, then immediately capped and inverted three times to mix. […] Vials were loaded into a custom 3D printed vial holder for slow end-over-end rotation in a dark 28 °C incubator overnight. […] At 24 hpf, embryos were removed from exposure vials and singulated into 96-well plates loaded with 100 μL chemical-free EM. Each exposure vial group was maintained in plate columns. After loading into 96-well plates, embryos were assessed for 24-hour mortality. For the remainder of the exposure, plates were kept stationary at 28 °C in the dark, until 120 hpf when morphology screening and the larval photo motor response (LPR) assay were conducted, section 2.3.2 and section 2.3.3, respectively.
Each treatment group was replicated over four vials, resulting in 32 embryos per treatment, split over two replicate 96-well plates per chemical. […] All reported concentrations were nominal water concentrations and are included in SI-T4.
At 24 hpf embryos were assessed for mortality (MO24). At 120 hpf embryos were assessed for abnormality in […] morphological endpoints: mortality (MORT), edemas (EDEM), bent axis (AXIS), touch response (TCHR), craniofacial (CRAN), muscular/cardiovascular (MUSC), lower trunk (LRTK), brain (BRAN), skin (SKIN), and notochord malformations (NC). Morphological assessments were made by a team of three to four individuals. The team was blinded to the identity, plate layout, and concentrations of the chemicals, thereby minimizing bias in morphological screening assessment. To ensure the assessments were consistent, concentration–response reproducibility of a parathion ethyl quality control plate was performed along with each experimental exposure set up. Details of all measured endpoints can be found at Developmental toxicity zebrafish phenotype atlas. […] Each endpoint was scored as a binary presence/absence and scores were compiled into an “Any effect” endpoint, the presence of abnormality in any individual endpoint.
The Any effect percent was used to calculate the BMC50, 50 % change relative to the background for each endpoint and chemical. All values were reported as the nominal exposure concentration.

For data set [2], the system named is zebrafish larvae, 120 hpf. Description: Larval photomotor response (LPR) assay after vial exposure. It counts as in vivo, Danio rerio. As to conditions: for fold_change: LPR. As for the experimental part: as §1
Each treatment group was replicated over four vials, resulting in 32 embryos per treatment, split over two replicate 96-well plates per chemical. […] Vial groups of plated larvae were tracked to assess the impact of the vial on the results. All reported concentrations were nominal water concentrations and are included in SI-T4.
The LPR assay was conducted at 120 hpf. […] Larval movement was tracked throughout minutes 6–24. Animals dead or morphologically abnormal were excluded from the analysis, and if more than 30 % of the wells in a treatment group were excluded, the treatment was removed.
Movement values were binned into 6s intervals, log normalized and used to calculate area under the curve (AUC). AUC values from the first cycle after calibration were used to calculate the LEL for each period (light and dark).

Where [3] appears, read: period dark, round 1, conc 3.125.
Where [4] appears, read: period dark, round 1, conc 6.25.
The mark [5] stands for this setting: period dark, round 1, conc 12.5.
The mark [6] stands for this setting: period dark, round 2, conc 37.5.
Setting [7] is: period light, round 1, conc 3.125.
[8] abbreviates: period light, round 1, conc 6.25.
Setting [9] is: period light, round 1, conc 12.5.
[10] abbreviates: period light, round 2, conc 37.5.

Consider `Cc1cccc2cccc(C)c12` [1,8-dimethylnaphthalene], for which, in data set [1] (Fig. 2, nominal concentration), the “BMC50 MO24 (mortality at 24 hpf)” value was found to be 49.8 µM. Further, in data set [1] (Fig. 2, nominal concentration), the “BMC50 MORT (mortality at 120 hpf)” value came out at 48.7 µM. Besides, in data set [1] (nominal concentration), the “BMC50 Any effect” value worked out at 41.2 µM. The “any effect BMD50” value in data set [1] worked out at 41.15 µM. For the same molecule, the “bmd, MO24” value in data set [1] (benchmark dose) was 49.8371. Besides, in data set [1] (benchmark dose), the “bmd, MORT” value stood at 48.678. Besides, the “bmd, ANY_” value in data set [1] (benchmark dose) turned out to be 41.1508. In addition, the fold_change in data set [2] (setting [3]) is recorded as -0.1333; in data set [2] (setting [4]), 0.3857; in data set [2] (setting [5]), -0.2522; in data set [2] (period dark, round 1, conc 25) it was -0.4588; in data set [2] (period dark, round 2, conc 30) it was -0.4155; in data set [2] (setting [6]), -0.7493. Also, the fold_change is recorded as -0.6849 in data set [2] (period dark, round 2, conc 45); 0.4922 in data set [2] (setting [7]); 0.5326 in data set [2] (setting [8]); -0.3791 in data set [2] (setting [9]); 0.4908 in data set [2] (period light, round 1, conc 25); -0.235 in data set [2] (period light, round 2, conc 30). Also, the fold_change was -0.3043 in data set [2] (setting [10]) and 1.248 in data set [2] (period light, round 2, conc 45).
Take `Cc1cc2c(C)ccc(C)c2cc1C` [1,4,6,7-tetramethylnaphthalene]: in data set [1] (Fig. 2, nominal concentration), the “BMC50 AXIS (curved or bent body axis at 120 hpf)” value amounted to 21.1 µM, the “BMC50 CRAN (craniofacial malformation at 120 hpf)” value came out at 23.9 µM, the “BMC50 EDEM (pericardial and/or yolk sac edema at 120 hpf)” value worked out at 22.5 µM and the “BMC50 LTRK (lower trunk and/or caudal fin at 120 hpf)” value worked out at 22.6 µM. For the same molecule, in data set [1] (Fig. 2, nominal concentration), the “BMC50 MO24 (mortality at 24 hpf)” value came out at 35.4 µM and the “BMC50 MORT (mortality at 120 hpf)” value was determined as 29.4 µM. Besides, the “BMC50 Any effect” value in data set [1] (nominal concentration) was 20.5 µM. For the same molecule, in data set [1], the “any effect BMD50” value turned out to be 20.47 µM. In data set [1] (benchmark dose), the “bmd, MO24” value turned out to be 35.4057; the “bmd, MORT” value came out at 29.3744; the “bmd, ANY_” value came to 20.4728; the “bmd, AXIS” value is on record as 21.1106. In addition, the “bmd, CRAN” value in data set [1] (benchmark dose) is on record as 23.8517. The “bmd, EDEM” value in data set [1] (benchmark dose, morphology endpoint EDEM) is on record as 22.5215. For the same molecule, the “bmd, LTRK” value in data set [1] (benchmark dose, morphology endpoint LTRK) is given as 22.6067. Further, the fold_change in data set [2] (setting [3]) is listed as 0.4047. For the same molecule, the fold_change in data set [2] (setting [4]) is reported as -0.3364. Moreover, in data set [2] (setting [5]), the fold_change is reported as -0.3332. Moreover, the fold_change in data set [2] (setting [7]) was -0.4049. For the same molecule, the fold_change in data set [2] (setting [8]) was 0.02072. The fold_change in data set [2] (setting [9]) is -0.2213.
Turning to `Cc1ccc2ccccc2c1` [2-methylnaphthalene], the “morphological effects (BMC50 for any morphological endpoint)” value in data set [1] is listed as “no morphological BMC50 values”. Besides, the fold_change in data set [2] (setting [3]) is 0.03896; in data set [2] (setting [4]), -0.06284; in data set [2] (setting [5]), 0.2024; in data set [2] (period dark, round 1, conc 25), 0.07059; in data set [2] (period dark, round 1, conc 50), -0.2156; in data set [2] (setting [7]), -0.3603. Besides, the fold_change is given as -0.05115 in data set [2] (setting [8]); 0.6486 in data set [2] (setting [9]); 0.2057 in data set [2] (period light, round 1, conc 25); 0.2253 in data set [2] (period light, round 1, conc 50).
For the molecule `Cc1ccc(C)c2ccccc12` [1,4-dimethylnaphthalene], the “BMC50 MO24 (mortality at 24 hpf)” value in data set [1] (Fig. 2, nominal concentration) turned out to be 30.4 µM. Moreover, the “BMC50 MORT (mortality at 120 hpf)” value in data set [1] (Fig. 2, nominal concentration) came to 28.3 µM. The “BMC50 Any effect” value in data set [1] (nominal concentration) stood at 24.9 µM. In data set [1], the “any effect BMD50” value turned out to be 24.93 µM. For the same molecule, the “bmd, MO24” value in data set [1] (benchmark dose) worked out at 30.4433. Also, the “bmd, MORT” value in data set [1] (benchmark dose) is given as 28.3398. Further, in data set [1] (benchmark dose), the “bmd, ANY_” value stood at 24.9263. The fold_change in data set [2] (setting [3]) is on record as 0.2846; in data set [2] (setting [4]), -0.05841; in data set [2] (setting [5]), -0.1506; in data set [2] (period dark, round 1, conc 25), -0.2067; in data set [2] (setting [7]), 0.303; in data set [2] (setting [8]), -0.4509. The fold_change came out at 1.1 in data set [2] (setting [9]) and 0.6023 in data set [2] (period light, round 1, conc 25).
Turning to `Cc1cccc2ccccc12` [1-methylnaphthalene], the “morphological effects (BMC50 for any morphological endpoint)” value in data set [1] is listed as “no morphological BMC50 values”. For the same molecule, in data set [2] (120 hpf, light/dark periods, result in words), the LPR behavioral effect result is “active”. For the same molecule, the fold_change in data set [2] (setting [3]) is recorded as -0.2838; in data set [2] (setting [4]), -0.4018; in data set [2] (setting [5]), -0.5302; in data set [2] (period dark, round 1, conc 25) it was -0.8382; in data set [2] (period dark, round 1, conc 50), -0.8713; in data set [2] (setting [7]), 0.7433. The fold_change in data set [2] (setting [8]) was found to be 0.645; in data set [2] (setting [9]) it was 0.113; in data set [2] (period light, round 1, conc 25) it was 0.4697; in data set [2] (period light, round 1, conc 50) it was 0.667.
As to `Cc1cc2ccccc2cc1C` [2,3-dimethylnaphthalene], the “BMC50 Any effect” value in data set [1] (nominal concentration) worked out at 46.6 µM. For the same molecule, the “any effect BMD50” value in data set [1] turned out to be 46.56 µM. In addition, the “bmd, ANY_” value in data set [1] (benchmark dose) was determined as 46.5587. The fold_change was -0.07813 in data set [2] (setting [3]); -0.1051 in data set [2] (setting [4]); -0.1104 in data set [2] (setting [5]); -0.9852 in data set [2] (period dark, round 1, conc 25); -1.366 in data set [2] (period dark, round 1, conc 50); -0.3145 in data set [2] (setting [7]). For the same molecule, the fold_change in data set [2] (setting [8]) is recorded as -0.003485; in data set [2] (setting [9]) it was -1.16; in data set [2] (period light, round 1, conc 25), -0.6826; in data set [2] (period light, round 1, conc 50) it was -0.533.
For the molecule `CCc1cccc2ccccc12` [1-ethylnaphthalene], in data set [1] (Fig. 2, nominal concentration), the “BMC50 AXIS (curved or bent body axis at 120 hpf)” value worked out at 43.9 µM. For the same molecule, in data set [1] (Fig. 2, nominal concentration), the “BMC50 CRAN (craniofacial malformation at 120 hpf)” value turned out to be 46.3 µM. In addition, the “BMC50 MO24 (mortality at 24 hpf)” value in data set [1] (Fig. 2, nominal concentration) came out at 44.6 µM. In addition, the “BMC50 MORT (mortality at 120 hpf)” value in data set [1] (Fig. 2, nominal concentration) is 41.9 µM. Further, the “BMC50 Any effect” value in data set [1] (nominal concentration) came to 33.7 µM. In addition, the “any effect BMD50” value in data set [1] was 33.7 µM. For the same molecule, the “bmd, MO24” value in data set [1] (benchmark dose) came to 44.6047. The “bmd, MORT” value in data set [1] (benchmark dose) was determined as 41.9285. The “bmd, ANY_” value in data set [1] (benchmark dose) was 33.6977. Also, the “bmd, AXIS” value in data set [1] (benchmark dose) was determined as 43.8887. For the same molecule, the “bmd, CRAN” value in data set [1] (benchmark dose) was determined as 46.3281. For the same molecule, the fold_change in data set [2] (setting [3]) is on record as 0.05526; in data set [2] (setting [4]), 0.06428; in data set [2] (setting [5]), -0.02558; in data set [2] (period dark, round 1, conc 25), -0.1629; in data set [2] (period dark, round 2, conc 30), -0.2464; in data set [2] (setting [6]), -0.2326. For the same molecule, the fold_change in data set [2] (setting [7]) is -0.3674; in data set [2] (setting [8]), -0.401; in data set [2] (setting [9]), -0.744; in data set [2] (period light, round 1, conc 25), 0.4136; in data set [2] (period light, round 2, conc 30) it was 0.3971; in data set [2] (setting [10]) it was -0.206.
